This experiment addresses T1, glucocorticoid receptor (GR) (Homo sapiens, UniProt P04150).
T1 construct: endogenous in cells; host or cells: HeLa (ATCC) cell lysate supernatant
T1 sequence (P04150 1-777): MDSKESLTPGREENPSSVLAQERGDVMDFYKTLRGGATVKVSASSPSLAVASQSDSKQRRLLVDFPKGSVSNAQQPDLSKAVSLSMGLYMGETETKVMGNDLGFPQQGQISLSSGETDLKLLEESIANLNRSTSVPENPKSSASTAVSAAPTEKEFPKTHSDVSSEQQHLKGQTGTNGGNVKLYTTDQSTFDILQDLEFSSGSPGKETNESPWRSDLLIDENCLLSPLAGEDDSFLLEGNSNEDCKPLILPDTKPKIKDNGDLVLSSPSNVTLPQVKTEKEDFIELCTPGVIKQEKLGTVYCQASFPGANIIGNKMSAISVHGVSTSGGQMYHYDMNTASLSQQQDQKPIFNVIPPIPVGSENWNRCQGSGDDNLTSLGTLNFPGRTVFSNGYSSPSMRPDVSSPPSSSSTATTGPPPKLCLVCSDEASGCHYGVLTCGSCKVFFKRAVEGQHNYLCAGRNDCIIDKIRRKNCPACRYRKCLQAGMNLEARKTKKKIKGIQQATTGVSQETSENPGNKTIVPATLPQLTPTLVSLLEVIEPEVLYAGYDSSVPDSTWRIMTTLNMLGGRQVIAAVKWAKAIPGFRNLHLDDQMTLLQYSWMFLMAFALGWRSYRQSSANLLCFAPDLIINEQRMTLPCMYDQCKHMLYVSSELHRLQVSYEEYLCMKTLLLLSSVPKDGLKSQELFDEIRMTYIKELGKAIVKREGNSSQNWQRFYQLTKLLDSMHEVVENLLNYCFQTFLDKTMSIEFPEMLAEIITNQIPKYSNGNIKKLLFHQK
In words: Ligand binding assay (GR BIND), 3H-dexamethasone displacement, HeLa cell lysate. How it is done: Binding Buffer: TEGM (10 mM Tris-HCl, 1 mM EDTA, 10% glycerol, 1 mM beta-mercaptoethanol, 10 mM Sodium Molybdate, pH 7.2)
50% HAP Slurry: Calbiochem Hydroxylapatite, Fast Flow, in 10 mM Tris, pH 8.0 and 1 mM EDTA.
Wash Buffer: 40 mM Tris, pH7.5, 100 mM KCl, 1 mM EDTA and 1 mM EGTA.
Dexmethasone-methyl-^3H, (DEX*); (Amersham cat# TRK645)
Dexamethasone (DEX) (Sigma, cat# D1756):
Phenol red-free Trypsin-EDTA is diluted in the same PBS 1:10. The cell layers are rinsed with 1× Trypsin, extra Trypsin is poured out, and the cell layers are incubated at 37° C. for ˜2 min. The flask is tapped and checked for signs of cell detachment. Once the cells begin to slide off the flask, the complete media is added. The cells are counted at this point, then diluted to the appropriate concentration and split into flasks or dishes for further culturing (Usually 1:3 to 1:6 dilution).
Preparation of Hela Cell Lysate
The cell pellet is washed twice with TEGM (10 mM Tris-HCl, 1 mM EDTA, 10% glycerol, 1 mM beta-mercaptoethanol, 10 mM Sodium Molybdate, pH 7.2). After the final wash, the cells are resuspended in TEGM at a concentration of 10^7 cells/mL. The cell suspension is snap frozen in liquid nitrogen or ethanol/dry ice bath and transferred to −80° C. freezer on dry ice. Before setting up the binding assay, the frozen samples are left on ice-water to just thaw (˜1 hr). Then the samples are centrifuged at 12,500 g to 20,000 g for 30 min at 4° C. The supernatant is used to set-up assay right away. If using 50 μL of supernatant, the test compound can be prepared in 50 μL of the TEGM buffer.
Procedure for Multiple Compound Screening
1×TEGM buffer is prepared, and the isotope-containing assay mixture is prepared in the following order: EtOH (2% final concentration in reaction), 3H-DEX (Amersham Biosciences) and 1×TEGM. [e.g. For 100 samples, 200 μL (100×2) of EtOH+4.25 μL of 1:10 ^3H-Dex stock+2300 μL (100×23) 1×TEGM]. The compound is serially diluted, e.g., if starting final conc. is 1 μM, and the compound is in 25 μL of solution, for duplicate samples, 75 μL of 4×1 μM solution is made and 3 μL of 100 μM is added to 72 μL of buffer, and 1:5 serial dilution.
25 μL of ^3H-DEX (6 nM) trace and 25 μL compound solution are first mixed together, followed by addition of 50 μL receptor solution. The reaction is gently mixed, spun briefly at about 200 rpm and incubated at 4° C. overnight. 100 μL of 50% HAP slurry is prepared and added to the incubated reaction which is then vortexed and incubated on ice for 5 to 10 minutes. The reaction mixture is vortexed twice more to resuspend HAP while incubating reaction. The samples in 96-well format are then washed in wash buffer using The FilterMate™ Universal Harvester plate washer (Packard). The washing process transfers HAP pellet containing ligand-bound expressed receptor to Unifilter-96 GF/B filter plate (Packard). The HAP pellet on the filter plate is incubated with 50 μL of MICROSCINT (Packard) scintillant for 30 minutes before being counted on the TopCount microscintillation counter (Packard). IC50s are calculated using DEX as a reference.

Setting [1] is: Table 1, HeLa cell lysate, 3H-DEX.
Where [2] appears, read: Table 2, prior-art comparison compounds.

pKi: −log10 of the molar value.

The molecule `C=CCNC(=O)c1c(F)cccc1CC[C@]1(O)CCC2=Cc3c(cnn3-c3ccc(F)cc3)C[C@@]21C` [Example 57, N-allyl-2-fluoro-6-{2-[(4αS,5R)-1-(4-fluorophenyl)-5-hydroxy-4α-methyl-1,4,4α,5,6,7-hexahydrocyclopenta[f]indazol-5-yl]ethyl}benzamide] gave a pKi under setting [1] of 9.21.
Under setting [2], `COc1ccccc1CC[C@]1(O)CCC2=Cc3c(cnn3-c3ccc(F)cc3)C[C@@]21C` [Example 58 WO 2004/075840 A2, reference compound] had a pKi of 9.55.
For the molecule `CC(C)(C)NC(=O)c1c(F)cccc1CC[C@]1(O)CCC2=Cc3c(cnn3-c3ccc(F)cc3)C[C@@]21C` [Example 59, N-(tert-butyl)-2-fluoro-6-{2-[(4αS,5R)-1-(4-fluorophenyl)-5-hydroxy-4α-methyl-1,4,4α,5,6,7-hexahydrocyclopenta[f]indazol-5-yl]ethyl}benzamide], under setting [1], the pKi is 8.74.
Molecule `CC(C)CNC(=O)c1c(F)cccc1CC[C@]1(O)CCC2=Cc3c(cnn3-c3ccc(F)cc3)C[C@@]21C` [Example 61, 2-fluoro-6-{2-[(4αS,5R)-1-(4-fluorophenyl)-5-hydroxy-4α-methyl-1,4,4α,5,6,7-hexahydrocyclopenta[f]indazol-5-yl]ethyl}-N-isobutylbenzamide] had a pKi under setting [1] of 9.24.
The same measure, in the same setting: the same measure for `CC(C)(C)NC(=O)c1ccccc1CC[C@]1(O)CCC2=Cc3c(cnn3-c3ccc(F)cc3)C[C@@]21C` [Example 62, N-(tert-butyl)-2-{2-[(4αS,5R)-1-(4-fluorophenyl)-5-hydroxy-4α-methyl-1,4,4α,5,6,7-hexahydrocyclopenta[f]indazol-5-yl]ethyl}benzamide]: 8.02.
In the case of `C[C@]12Cc3cnn(-c4ccc(F)cc4)c3C=C1CC[C@@]2(O)CCc1ccccc1F` [Example 70 WO 2004/075840 A2, reference compound], under setting [2], the pKi is 8.53.
As for `CC(C)S(=O)(=O)NCc1c(F)cccc1CC[C@]1(O)CCC2=Cc3c(cnn3-c3ccc(F)cc3)C[C@@]21C` [Example 83, N-(2-fluoro-6-{2-[(4αS,5R)-1-(4-fluorophenyl)-5-hydroxy-4α-methyl-1,4,4α,5,6,7-hexahydrocyclopenta[f]indazol-5-yl]ethyl}benzyl)propane-2-sulfonamide], under setting [1], the pKi is 9.25.
`CCS(=O)(=O)NCc1c(F)cccc1CC[C@]1(O)CCC2=Cc3c(cnn3-c3ccc(F)cc3)C[C@@]21C` [Example 84, N-(2-fluoro-6-{2-[(4αS,5R)-1-(4-fluorophenyl)-5-hydroxy-4α-methyl-1,4,4α,5,6,7-hexahydrocyclopenta[f]indazol-5-yl]ethyl}benzyl)ethanesulfonamide]: the pKi under setting [1] was 9.21.
`C[C@]12Cc3cnn(-c4ccc(F)cc4)c3C=C1CC[C@@]2(O)CCc1cccc(F)c1CNS(=O)(=O)C(Cl)Cl` [Example 85, 1,1-dichloro-N-(2-fluoro-6-{2-[(4αS,5R)-1-(4-fluorophenyl)-5-hydroxy-4α-methyl-1,4,4α,5,6,7-hexahydrocyclopenta[f]indazol-5-yl]ethyl}benzyl)methanesulfonamide] gave a pKi under setting [1] of 9.51.
On the same count and under the same terms, the same measure for `C[C@]12Cc3cnn(-c4ccc(F)cc4)c3C=C1CC[C@@]2(O)CCc1cccc(F)c1CNS(=O)(=O)CC(F)(F)F` [Example 86, 2,2,2-trifluoro-N-(2-fluoro-6-{2-[(4αS,5R)-1-(4-fluorophenyl)-5-hydroxy-4α-methyl-1,4,4α,5,6,7-hexahydrocyclopenta[f]indazol-5-yl]ethyl}benzyl)ethanesulfonamide]: 9.29; for `C[C@]12Cc3cnn(-c4ccc(F)cc4)c3C=C1CC[C@@]2(O)CCc1cccc(F)c1CNS(=O)(=O)C1CC1` [Example 88, N-(2-fluoro-6-{2-[(4αS,5R)-1-(4-fluorophenyl)-5-hydroxy-4α-methyl-1,4,4α,5,6,7-hexahydrocyclopenta[f]indazol-5-yl]ethyl}benzyl)cyclopropanesulfonamide]: 9.24.
For `CN(C)S(=O)(=O)NCc1c(F)cccc1CC[C@]1(O)CCC2=Cc3c(cnn3-c3ccc(F)cc3)C[C@@]21C` [Example 89, N′-(2-fluoro-6-{2-[(4αS,5R)-1-(4-fluorophenyl)-5-hydroxy-4α-methyl-1,4,4α,5,6,7-hexahydrocyclopenta[f]indazol-5-yl]ethyl}benzyl)-N,N-dimethylsulfamide], under setting [1], the pKi was 9.40.
Molecule `C[C@]12Cc3cnn(-c4ccc(F)cc4)c3C=C1CC[C@@]2(O)CCc1ccccc1C1(NS(=O)(=O)C2CC2)CC1` [Example 91, N-[1-(2-{2-[(4αS,5R)-1-(4-fluorophenyl)-5-hydroxy-4α-methyl-1,4,4α,5,6,7-hexahydrocyclopenta[f]indazol-5-yl]ethyl}phenyl)cyclopropyl]cyclopropanesulfonamide] gave a pKi under setting [1] of 9.59.
Same read-out and setting: next, `C[C@]12Cc3cnn(-c4ccc(F)cc4)c3C=C1CC[C@@]2(O)CCc1ccccc1CC(N)=O` [Example 107, 2-(2-{2-[(4αS,5R)-1-(4-fluorophenyl)-5-hydroxy-4α-methyl-1,4,4α,5,6,7-hexahydrocyclopenta[f]indazol-5-yl]ethyl}phenyl)acetamide]: 8.63.
The molecule `CN(C)S(=O)(=O)Nc1c(F)cccc1CC[C@]1(O)CCC2=Cc3c(cnn3-c3ccc(F)cc3)C[C@@]21C` [Example 113, N′-(2-fluoro-6-{2-[(4αS,5R)-1-(4-fluorophenyl)-5-hydroxy-4α-methyl-1,4,4α,5,6,7-hexahydrocyclopenta[f]indazol-5-yl]ethyl}phenyl)-N,N-dimethylsulfamide] had a negative logarithm of the Ki (pKi) under setting [1] of 8.58.
Regarding `CCS(=O)(=O)Nc1ccccc1CC[C@]1(O)CCC2=Cc3c(cnn3-c3ccc(F)cc3)C[C@@]21C` [Example 114, N-(2-{2-[(4αS,5R)-1-(4-fluorophenyl)-5-hydroxy-4α-methyl-1,4,4α,5,6,7-hexahydrocyclopenta[f]indazol-5-yl]ethyl}phenyl)ethanesulfonamide], the pKi under setting [1] is 8.56.
Regarding `CN(C)S(=O)(=O)c1ccccc1CC[C@]1(O)CCC2=Cc3c(cnn3-c3ccc(F)cc3)C[C@@]21C` [Example 138, 2-{2-[(4αS,5R)-1-(4-fluorophenyl)-5-hydroxy-4α-methyl-1,4,4α,5,6,7-hexahydrocyclopenta[f]indazol-5-yl]ethyl}-N,N-dimethylbenzenesulfonamide], under setting [1], the negative-log Ki (pKi) is 9.08.
Still for that read-out and setting: next, `CCS(=O)(=O)c1ccccc1CC[C@]1(O)CCC2=Cc3c(cnn3-c3ccc(F)cc3)C[C@@]21C` [Example 143, (4αS,5R)-5-{2-[2-(ethylsulfonyl)phenyl]ethyl}-1-(4-fluorophenyl)-4α-methyl-1,4,4α,5,6,7-hexahydrocyclopenta[f]indazol-5-ol]: 8.84.

For orientation: pKi means the negative decadic logarithm of the Ki, by convention in mol/L. The low end stands for a large Ki, the high end for a small Ki.
